Source: ChEMBL document CHEMBL3232781, “Fluorinated benzophenone derivatives: balanced multipotent agents for Alzheimer's disease” (Eur J Med Chem, 2014)
pIC50: −log10 of the molar value. Calls of active or inactive are those of the source. No cut-off for these calls is given here.

Experiments:
[1] = system: SH-SY5Y; assay: Antioxidant activity in human SH-SY5Y cells assessed as inhibition of t-BuOOH-induced intracellular ROS formation at 500 uM after 30 mins by dihydroethidium-based spectrofluorometric analysis relative to control; assay type: functional; conditions: 0.5 h
[2] = system: SH-SY5Y; assay: Antioxidant activity in human SH-SY5Y cells assessed as inhibition of amyloid beta (25 to 35)-induced intracellular ROS formation at 500 uM after 3 hrs by dihydroethidium-based fluorescence microscopic analysis relative to control; assay type: functional
[3] = target: Beta-secretase 1 (Homo sapiens) (UniProt P56817); assay: Inhibition of human recombinant BACE-1 using M-2420 as substrate up to 4 uM incubated for 1 hr prior to substrate addition measured after 15 mins by FRET assay
[4] = target: Acetylcholinesterase (Homo sapiens, UniProt P22303); assay: Inhibition of human recombinant AChE using acetylthiocholine iodide as substrate preincubated for 20 mins by Ellman's method
[5] = target: Beta-secretase 1 (Homo sapiens) (UniProt P56817); assay: Inhibition of human recombinant BACE-1 using M-2420 as substrate at 3 uM incubated for 1 hr prior to substrate addition measured after 15 mins by FRET assay relative to control
[6] = system: SH-SY5Y; assay: Neurotoxicity in human SH-SY5Y cells assessed as decrease in cell viability at 10 to 50 uM after 24 hrs by MTT assay; assay type: toxicity, cell-based
[7] = target: Beta-secretase 1 (Homo sapiens) (UniProt P56817); assay: Inhibition of human recombinant BACE-1 using M-2420 as substrate at 3.38 uM incubated for 1 hr prior to substrate addition measured after 15 mins by FRET assay relative to control
[8] = system: SH-SY5Y; assay: Antioxidant activity in human SH-SY5Y cells assessed as inhibition of t-BuOOH-induced intracellular ROS formation at 3 to 5 uM after 30 mins by dihydroethidium-based spectrofluorometric analysis; assay type: functional, cell-based
[9] = system: SH-SY5Y; assay: Antioxidant activity in human SH-SY5Y cells assessed as inhibition of amyloid beta (25 to 35)-induced intracellular ROS formation at 3 to 5 uM after 3 hrs by dihydroethidium-based fluorescence microscopic analysis relative to control; assay type: functional
[10] = target: Beta-secretase 1 (Homo sapiens) (UniProt P56817); assay: Inhibition of human recombinant BACE-1 using M-2420 as substrate at 5 uM incubated for 1 hr prior to substrate addition measured after 15 mins by FRET assay relative to control

Sequence of Acetylcholinesterase (P22303 whole entry): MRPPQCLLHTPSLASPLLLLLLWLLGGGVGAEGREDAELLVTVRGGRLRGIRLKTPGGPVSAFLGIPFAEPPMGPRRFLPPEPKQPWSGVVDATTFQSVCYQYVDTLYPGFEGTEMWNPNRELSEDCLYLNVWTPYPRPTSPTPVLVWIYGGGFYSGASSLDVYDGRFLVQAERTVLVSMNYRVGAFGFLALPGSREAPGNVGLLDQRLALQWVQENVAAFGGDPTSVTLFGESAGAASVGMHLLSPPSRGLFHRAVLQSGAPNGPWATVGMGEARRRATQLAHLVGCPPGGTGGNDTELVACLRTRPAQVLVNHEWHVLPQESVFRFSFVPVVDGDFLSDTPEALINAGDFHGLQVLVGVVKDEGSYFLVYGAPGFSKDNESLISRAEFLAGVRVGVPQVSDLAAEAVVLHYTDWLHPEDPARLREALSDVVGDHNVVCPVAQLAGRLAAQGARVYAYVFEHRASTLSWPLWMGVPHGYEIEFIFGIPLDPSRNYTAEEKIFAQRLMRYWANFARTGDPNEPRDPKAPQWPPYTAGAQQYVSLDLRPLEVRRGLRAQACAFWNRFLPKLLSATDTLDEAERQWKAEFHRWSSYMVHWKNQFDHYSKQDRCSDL
Sequence of Beta-secretase 1 (Homo sapiens) (P56817 whole entry): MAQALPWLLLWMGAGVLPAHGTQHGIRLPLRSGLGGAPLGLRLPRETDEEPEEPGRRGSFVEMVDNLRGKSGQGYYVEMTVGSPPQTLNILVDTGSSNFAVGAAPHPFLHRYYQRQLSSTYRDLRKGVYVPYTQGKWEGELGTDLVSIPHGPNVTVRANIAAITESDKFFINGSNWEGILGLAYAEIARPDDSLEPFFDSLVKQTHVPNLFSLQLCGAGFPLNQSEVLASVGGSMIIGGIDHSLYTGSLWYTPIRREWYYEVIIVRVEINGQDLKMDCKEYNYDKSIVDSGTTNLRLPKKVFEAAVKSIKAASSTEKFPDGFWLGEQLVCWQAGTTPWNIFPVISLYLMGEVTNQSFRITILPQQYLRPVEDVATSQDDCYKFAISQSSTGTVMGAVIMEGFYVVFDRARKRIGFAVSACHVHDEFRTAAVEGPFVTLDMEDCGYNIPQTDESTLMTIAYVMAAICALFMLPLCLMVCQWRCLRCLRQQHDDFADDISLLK

SMILES	inhibition [3]	inhibition [4]	inhibition [5] [%]	further results
CC(=O)N[C@@H](CS)C(=O)O [ACETYLCYSTEINE]	–	–	–	inhibition at 500 µM [1]: 35%; inhibition at 500 µM [2]: 35%
COc1ccc(C(=O)c2ccc(CN(C)Cc3ccccc3)cc2)cc1	inactive	–	–	–
O=C(c1ccc(CN2CCN(Cc3ccccc3)CC2)cc1)c1ccc(O)c(F)c1	inactive	inactive	–	–
O=C(c1ccc(CN2CCC(O)CC2)cc1)c1ccc(O)c(F)c1	–	inactive	32.8	–
CN(C)CCN(C)Cc1ccc(C(=O)c2ccc(O)c(F)c2)cc1	–	inactive	13.5	–
O=C(c1ccc(CN2CCN(c3ccccc3)CC2)cc1)c1ccc(O)c(F)c1	inactive	inactive	–	–
Cc1ccc(C(=O)c2ccc(O)c(F)c2)cc1	–	inactive	35.4	–
COc1ccc(C(=O)c2ccc(CN(C)Cc3ccccc3)cc2)cc1F	–	–	–	Activity [6]: Non-toxic; inhibition [7]: 10.7%; inhibition [8]: inactive; inhibition [9]: inactive
CN1CCN(Cc2ccc(C(=O)c3ccc(O)c(F)c3)cc2)CC1	inactive	inactive	–	–
CN(Cc1ccc(C(=O)c2ccc(O)c(F)c2)cc1)Cc1cccc(O)c1	inactive	inactive	–	–
COc1ccc(C(=O)c2ccc(CN(C)Cc3ccccc3)cc2)cc1OC	–	–	–	inhibition [10]: 20%
CN(Cc1ccccc1)Cc1ccc(C(=O)c2ccc(O)c(F)c2)cc1	–	–	40.8	pIC50 [4]: 5.44; Activity [6]: Toxic; inhibition [8]: Active; Imax [9]: 30%
O=C(c1ccc(CN2CCC(CCO)CC2)cc1)c1ccc(O)c(F)c1	–	–	58.7	pIC50 [4]: 5.63; Activity [6]: Non-toxic; inhibition [8]: Active; Imax [9]: 30%
CN(Cc1ccccc1)Cc1ccc(C(=O)c2ccc(O)cc2)cc1	inactive	–	–	–
CN(CCO)Cc1ccc(C(=O)c2ccc(O)c(F)c2)cc1	–	inactive	46.7	–
CN(Cc1ccc(C(=O)c2ccc(O)c(F)c2)cc1)C1CCCCC1	–	inactive	36.2	–
